# Reference: the supplement of paper PMC4862054
# Key:
# MDA-MB-453 [1] = test: normalised viability (% of control), CellTiter-Blue; higher = more viable cells (about 100 = DMSO control); settings: incubation time: 72 h
# Method: (§1)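 DSRT, CellTiter-Blue viability, 72 h incubation. Signal is normalised to DMSO and benzethonium chloride controls. Value is the normalised response at dose 6.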
# HDQ-P1 [2] = test: as above; settings: incubation time: 72 h
# Method: as §1
# DU-4475 [3] = test: as above; settings: incubation time: 72 h
# Method: as §1
# CAL-85-1 [4] = test: as above; settings: incubation time: 72 h
# Method: as §1
# CAL-148 [5] = test: as above; settings: incubation time: 72 h
# Method: as §1
# CAL-51 [6] = test: as above; settings: incubation time: 72 h
# Method: as §1
# CAL-120 [7] = test: as above; settings: incubation time: 72 h
# Method: (§2)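 DSRT, CellTiter-Blue viability, 72 h incubation. Signal is normalised to DMSO and benzethonium chloride controls. Value is the normalised response at dose 3.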
# Hs578T [8] = test: as above; settings: incubation time: 72 h
# Method: as §2
# MDA-MB-453 [9] = test: as above; settings: incubation time: 72 h; remark: listed apart in the source
# Method: as §2
# MDA-MB-231 [10] = test: as above; settings: incubation time: 72 h
# Method: as §2
# MFM-223 = test: as above; settings: incubation time: 72 h
# Method: as §2
# DU-4475 [11] = test: as above; settings: incubation time: 72 h; remark: listed apart in the source
# Method: as §2
# BT-549 [12] = test: as above; settings: incubation time: 72 h
# Method: as §2
# CAL-148 [13] = test: as above; settings: incubation time: 72 h; remark: listed apart in the source
# Method: as §2
# MDA-MB-468 [14] = test: as above; settings: incubation time: 72 h
# Method: as §2
# MDA-MB-453 [15] = test: as above; settings: incubation time: 72 h; remark: listed apart in the source
# Method: (§3)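 DSRT, CellTiter-Blue viability, 72 h incubation. Signal is normalised to DMSO and benzethonium chloride controls. Value is the normalised response at dose 7.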
# HDQ-P1 [16] = test: as above; settings: incubation time: 72 h; remark: listed apart in the source
# Method: as §3
# DU-4475 [17] = test: as above; settings: incubation time: 72 h; remark: listed apart in the source
# Method: as §3
# CAL-85-1 [18] = test: as above; settings: incubation time: 72 h; remark: listed apart in the source
# Method: as §3
# CAL-148 [19] = test: as above; settings: incubation time: 72 h; remark: listed apart in the source
# Method: as §3
# CAL-51 [20] = test: as above; settings: incubation time: 72 h; remark: listed apart in the source
# Method: as §3
# CAL-51 [21] = settings: 72 h
# How it was run: (§4)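 Seeding of breast cancer cell lines (20 µl suspension) was done into 384-well plates pre-loaded with compound at 5 concentrations, 10-fold apart, covering a compound-specific 10,000-fold range. The plates were incubated for 72 h, read for CellTox Green fluorescence (485/520 nm), and then read for CellTiter-Glo luminescence after 10 min at room temperature. Every plate was normalised to 0.1 % DMSO and a positive kill control. Curve fitting gave the EC50, censored at the top concentration.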
# CAL-120 [22] = settings: 72 h
# How it was run: as §4
# Hs578T [23] = settings: 72 h
# How it was run: as §4
# MDA-MB-453 [24] = settings: 72 h
# How it was run: as §4
# MDA-MB-231 [25] = settings: 72 h
# How it was run: as §4
# HCC1937 = settings: 72 h
# How it was run: as §4
# CAL-85-1 [26] = settings: 72 h
# How it was run: as §4
# BT-549 [27] = settings: 72 h
# How it was run: as §4
# MCF-10A = settings: 72 h
# How it was run: as §4
# BT-474 = settings: 72 h
# How it was run: as §4
# SK-BR-3 = settings: 72 h
# How it was run: as §4
# MDA-MB-468 [28] = settings: 72 h
# How it was run: as §4
# MDA-MB-436 = settings: 72 h
# How it was run: as §4
structure (smiles),measurement,setting,value
CC(C)(C#N)c1cc(Cn2cncn2)cc(C(C)(C)C#N)c1 [Anastrozole],normalised viability,MDA-MB-453 [1]; 300 nM,84.1%
same,normalised viability,HDQ-P1 [2]; 300 nM,78%
same,normalised viability,DU-4475 [3]; 300 nM,83.5%
same,normalised viability,CAL-85-1 [4]; 300 nM,93.2%
same,normalised viability,CAL-148 [5]; 300 nM,96.1%
same,normalised viability,CAL-51 [6]; 300 nM,102%
same,normalised viability,CAL-120 [7]; 100 nM,88.5%
same,normalised viability,Hs578T [8]; 100 nM,88.4%
same,normalised viability,MDA-MB-453 [9]; 10 nM,97.7%
same,normalised viability,MDA-MB-231 [10]; 100 nM,92.7%
same,normalised viability,MFM-223; 100 nM,94.2%
same,normalised viability,DU-4475 [11]; 10 nM,98.6%
same,normalised viability,BT-549 [12]; 100 nM,95.7%
same,normalised viability,CAL-148 [13]; 10 nM,86.8%
same,normalised viability,MDA-MB-468 [14]; 100 nM,107%
same,normalised viability,MDA-MB-453 [15]; 1000 nM,105%
same,normalised viability,HDQ-P1 [16]; 1000 nM,84.2%
same,normalised viability,DU-4475 [17]; 1000 nM,91.3%
same,normalised viability,CAL-85-1 [18]; 1000 nM,90.8%
same,normalised viability,CAL-148 [19]; 1000 nM,90.4%
same,normalised viability,CAL-51 [20]; 1000 nM,93.9%
C[C@]12CC[C@H](O)CC1=CC[C@@H]1[C@@H]2CC[C@]2(C)C(c3cccnc3)=CC[C@@H]12 [Abiraterone],normalised viability,MDA-MB-453 [1]; 150 nM,105%
same,normalised viability,HDQ-P1 [2]; 150 nM,79.2%
same,normalised viability,DU-4475 [3]; 150 nM,92.2%
same,normalised viability,CAL-85-1 [4]; 150 nM,93.9%
same,normalised viability,CAL-148 [5]; 150 nM,93.8%
same,normalised viability,CAL-51 [6]; 150 nM,102%
same,normalised viability,CAL-120 [7]; 50 nM,87.6%
same,normalised viability,Hs578T [8]; 50 nM,91.7%
same,normalised viability,MDA-MB-453 [9]; 5 nM,91.6%
same,normalised viability,MDA-MB-231 [10]; 50 nM,95.6%
same,normalised viability,MFM-223; 50 nM,98%
same,normalised viability,DU-4475 [11]; 5 nM,94%
same,normalised viability,BT-549 [12]; 50 nM,108%
same,normalised viability,CAL-148 [13]; 5 nM,86.7%
same,normalised viability,MDA-MB-468 [14]; 50 nM,107%
same,normalised viability,MDA-MB-453 [15]; 500 nM,92.3%
same,normalised viability,HDQ-P1 [16]; 500 nM,112%
same,normalised viability,DU-4475 [17]; 500 nM,94.2%
same,normalised viability,CAL-85-1 [18]; 500 nM,77.2%
same,normalised viability,CAL-148 [19]; 500 nM,94.7%
same,normalised viability,CAL-51 [20]; 500 nM,103%
same,"EC50, CellTiter-Glo",CAL-51 [21],43.4 nM
CNNCc1ccc(C(=O)NC(C)C)cc1 [Procarbazine],normalised viability,MDA-MB-453 [1]; 300 nM,101%
same,normalised viability,HDQ-P1 [2]; 300 nM,97.5%
same,normalised viability,DU-4475 [3]; 300 nM,83.2%
same,normalised viability,CAL-85-1 [4]; 300 nM,100%
same,normalised viability,CAL-148 [5]; 300 nM,101%
same,normalised viability,CAL-51 [6]; 300 nM,105%
same,normalised viability,CAL-120 [7]; 100 nM,106%
same,normalised viability,Hs578T [8]; 100 nM,104%
same,normalised viability,MDA-MB-453 [9]; 10 nM,105%
same,normalised viability,MDA-MB-231 [10]; 100 nM,105%
same,normalised viability,MFM-223; 100 nM,92.8%
same,normalised viability,DU-4475 [11]; 10 nM,112%
same,normalised viability,BT-549 [12]; 100 nM,111%
same,normalised viability,CAL-148 [13]; 10 nM,98.1%
same,normalised viability,MDA-MB-468 [14]; 100 nM,102%
same,normalised viability,MDA-MB-453 [15]; 1000 nM,113%
same,normalised viability,HDQ-P1 [16]; 1000 nM,95.7%
same,normalised viability,DU-4475 [17]; 1000 nM,105%
same,normalised viability,CAL-85-1 [18]; 1000 nM,89.2%
same,normalised viability,CAL-148 [19]; 1000 nM,87.9%
same,normalised viability,CAL-51 [20]; 1000 nM,100%
Cn1c(=O)n(-c2ccc(C(C)(C)C#N)cc2)c2c3cc(-c4cnc5ccccc5c4)ccc3ncc21 [Dactolisib],"EC50, CellTiter-Glo",CAL-120 [22],9.42 nM
same,"EC50, CellTiter-Glo",Hs578T [23],13.6 nM
same,"EC50, CellTiter-Glo",MDA-MB-453 [24],12 nM
same,"EC50, CellTiter-Glo",MDA-MB-231 [25],11.8 nM
same,"EC50, CellTiter-Glo",HCC1937,13 nM
same,"EC50, CellTiter-Glo",CAL-85-1 [26],8.05 nM
same,"EC50, CellTiter-Glo",BT-549 [27],9.82 nM
same,"EC50, CellTiter-Glo",MCF-10A,28.5 nM
same,"EC50, CellTiter-Glo",BT-474,9.85 nM
same,"EC50, CellTiter-Glo",CAL-51 [21],14.3 nM
same,"EC50, CellTiter-Glo",SK-BR-3,14 nM
same,"EC50, CellTiter-Glo",MDA-MB-468 [28],23.1 nM
same,"EC50, CellTiter-Glo",MDA-MB-436,3.68 nM
